The record followed here is ChEMBL document CHEMBL5252649, “CRBN ligand expansion for hematopoietic prostaglandin D2 synthase (H-PGDS) targeting PROTAC design and their in vitro ADME profiles” (Bioorg Med Chem, 2023).

Values after ≈ are worked out from the molar mass of the structure shown. Where only a bound is given, the exact number is not on record here.

Data set [1] is described as follows: Solubility of the compound in PBS buffer at 100 uM at pH 7.4 by UPLC/MS/MS analysis. In kind it is physicochemical.
Data set [2] concerns the target Protein cereblon/Hematopoietic prostaglandin D synthase (Homo sapiens, UniProt O60760+Q96SW2). Briefly: PROTAC activity at CRBN/H-PGDS in human KU812 cells assessed as induction of H-PGDS degradation by measuring decrease in H-PGDS protein expression incubated for 24 hrs by western blot analysis. It counts as cell-based. The settings on record: for DC50: ku812 cell line; for Activity: KU812 cell line. Background: Immunoblotting shows a protein as a band on a membrane.

Data set [3] is described as follows: Lipophilicity, logD of the compound by UPLC analysis. The settings on record: octanol/water. In kind it is physicochemical.
Data set [4] can be described thus: Apparent permeability coefficient, Papp of the compound at pH 7.4 incubated for 4 hrs by UPLC/MS/MS analysis. In kind it is ADME. As to conditions: for Papp at 4 h: not told, pH 7.4.
A short description of data set [5]: Metabolic stability of the compound in human liver microsomes incubated for 10 mins in presence of NADPH by UPLC/MS/MS analysis. In kind it is ADME, Microsome. The settings on record: read-out: Stability.
A short description of data set [6]: Metabolic stability of the compound in human liver microsomes incubated for 60 mins in presence of NADPH by UPLC/MS/MS analysis. In kind it is ADME, Microsome. As to conditions: read-out: Stability. A general note: Liver microsomes are a subcellular fraction often used to study metabolism.

As a reminder, the solubility is how much of the substance goes into solution per volume. One may read the DC50 as the concentration at which degradation of the target reaches its halfway point. In general, logD refers to the decadic logarithm of the distribution of all forms, ionised or not, between an organic phase and buffer at a given pH. Higher therefore signals higher lipophilicity. The term Papp denotes a coefficient for how fast a substance crosses the barrier. As to `Cn1cccc1C(=O)N1CCN(C(=O)Nc2ccc(N3CCC(C(=O)N4CCN(c5ccc6c(c5)C(=O)N(C5CCC(=O)NC5=O)C6=O)CC4)CC3)cc2)CC1` (stereo not drawn), the concentration in solution in data set [1] (solubility at 100 µM) came to 2.91 µM (≈ 2.22 µg/mL). Besides, in data set [2], the DC50 was 0.02 nM. In data set [3], the logD worked out at 2.65. Also, the apparent permeability (Papp) at 4 h in data set [4] came out at 0.009 ×10⁻⁶ cm/s. For the same molecule, the remaining at 10 min in data set [5] worked out at 90%. The remaining at 1 h in data set [6] amounted to 72%.

In data set [1], `Cn1cccc1C(=O)N1CCN(C(=O)Nc2ccc(N3CCC(C(=O)N4CCOCC4)CC3)cc2)CC1` gave a solubility at 100 µM not below 95 µM. The molecule also yielded a logD in data set [3] of 2.25. For the same molecule, the Papp at 4 h in data set [4] came out at 0.21 ×10⁻⁶ cm/s. In addition, the remaining at 10 min in data set [5] came out at 92%. The remaining at 1 h in data set [6] came out at 83%.

The molecule `O=C1CCC(N2C(=O)c3cc(F)c(N4CCN(C(=O)C5CCN(c6ccc(NC(=O)c7cnc(Oc8ccccc8)nc7)cc6)CC5)CC4)cc3C2=O)C(=O)N1` (stereo not drawn) registered a solubility at 100 µM in data set [1] of less than 0.5 µM. In data set [2], the Activity entry is “Dose-Dependent Effect” and the DC50 worked out at 0.147 nM. This molecule also displayed a logD in data set [3] of 3.5. For the same molecule, in data set [4], the Papp at 4 h is 0.007 ×10⁻⁶ cm/s. Moreover, the remaining at 10 min in data set [5] was 93%. The remaining at 1 h in data set [6] worked out at 69%.

In turn, `O=C1CCC(c2ccc(NCC(=O)N3CCN(C(=O)C4CCN(c5ccc(NC(=O)c6cnc(Oc7ccccc7)nc6)cc5)CC4)CC3)cc2)C(=O)N1` (stereo not drawn) returned a solubility at 100 µM in data set [1] of 7 µM (≈ 5.12 µg/mL). Moreover, in data set [2], the Activity result was “Dose-Dependent Effect” and the DC50 is 0.104 nM. This molecule came in with a log distribution coefficient (logD) in data set [3] of 3. For the same molecule, in data set [4], the Papp at 4 h was 0.2 ×10⁻⁶ cm/s. Besides, the remaining at 10 min in data set [5] came to 89%. Further, the remaining at 1 h in data set [6] was found to be 78%.

`O=C(Nc1ccc(N2CCC(C(=O)N3CCOCC3)CC2)cc1)c1cnc(Oc2ccccc2)nc1` yielded a solubility at 100 µM in data set [1] of 3.17 µM (≈ 1.55 µg/mL). In data set [3], this molecule returned a log distribution coefficient (logD) of 3.06. Further, in data set [4], the Papp at 4 h amounted to 3.01 ×10⁻⁶ cm/s. In addition, the remaining at 10 min in data set [5] was determined as 96%. For the same molecule, the remaining at 1 h in data set [6] is 80%.

Consider `O=C1CCC(N2C(=O)c3ccc(N4CCN(C(=O)C5CCN(c6ccc(NC(=O)c7cnc(Oc8ccccc8)nc7)cc6)CC5)CC4)cc3C2=O)C(=O)N1` (stereo not drawn), for which the solubility at 100 µM in data set [1] is less than 0.5 µM. Moreover, the DC50 in data set [2] stood at 0.175 nM. Besides, the logD in data set [3] was found to be 3.33. In addition, the Papp at 4 h in data set [4] turned out to be 0.049 ×10⁻⁶ cm/s. The remaining at 10 min in data set [5] stood at 93%. In addition, the remaining at 1 h in data set [6] amounted to 80%.

The molecule `Cn1cccc1C(=O)N1CCN(C(=O)Nc2ccc(N3CCC(C(=O)N4CCN(c5cccc6c5C(=O)N(C5CCC(=O)NC5=O)C6=O)CC4)CC3)cc2)CC1` (stereo not drawn) displayed a solubility at 100 µM in data set [1] of 37.4 µM (≈ 28.6 µg/mL). Further, in data set [2], the DC50 came out at 0.02 nM. Further, the logD in data set [3] is 2.79. In data set [4] (pH 7.4, 4 h), the Papp came to 0.0007 ×10⁻⁶ cm/s. Further, the remaining at 10 min in data set [5] was determined as 93%. Besides, the remaining at 1 h in data set [6] is 79%.

As for `O=C1CCC(N2C(=O)c3cccc(N4CCN(C(=O)C5CCN(c6ccc(NC(=O)c7cnc(Oc8ccccc8)nc7)cc6)CC5)CC4)c3C2=O)C(=O)N1` (stereo not drawn), the concentration in solution in data set [1] (solubility at 100 µM) came to 1.12 µM (≈ 0.832 µg/mL). Further, the DC50 in data set [2] worked out at 0.036 nM. Further, the logD in data set [3] is 3.39. Moreover, in data set [4], the Papp at 4 h turned out to be 0.07 ×10⁻⁶ cm/s. Besides, the remaining at 10 min in data set [5] worked out at 89%. In data set [6], the remaining at 1 h worked out at 75%.
